Usually pIC50 stands for the negative decadic logarithm of the IC50, by convention in mol/L.

pIC50: −log10 of the molar value. Structures can show the parent of a compound that is named as a salt.

Results on 21 compounds are retold here after patent publication US20220041641A1, “QUATERNARY AMMONIUM SALTS AS INHIBITORS OF TRIMETHYLAMINE PRODUCTION” (Senda Biosciences, Inc., priority 2018, published 2022).

CutC from Proteus mirabilis, sequence (B4EYG1 entry or part of it): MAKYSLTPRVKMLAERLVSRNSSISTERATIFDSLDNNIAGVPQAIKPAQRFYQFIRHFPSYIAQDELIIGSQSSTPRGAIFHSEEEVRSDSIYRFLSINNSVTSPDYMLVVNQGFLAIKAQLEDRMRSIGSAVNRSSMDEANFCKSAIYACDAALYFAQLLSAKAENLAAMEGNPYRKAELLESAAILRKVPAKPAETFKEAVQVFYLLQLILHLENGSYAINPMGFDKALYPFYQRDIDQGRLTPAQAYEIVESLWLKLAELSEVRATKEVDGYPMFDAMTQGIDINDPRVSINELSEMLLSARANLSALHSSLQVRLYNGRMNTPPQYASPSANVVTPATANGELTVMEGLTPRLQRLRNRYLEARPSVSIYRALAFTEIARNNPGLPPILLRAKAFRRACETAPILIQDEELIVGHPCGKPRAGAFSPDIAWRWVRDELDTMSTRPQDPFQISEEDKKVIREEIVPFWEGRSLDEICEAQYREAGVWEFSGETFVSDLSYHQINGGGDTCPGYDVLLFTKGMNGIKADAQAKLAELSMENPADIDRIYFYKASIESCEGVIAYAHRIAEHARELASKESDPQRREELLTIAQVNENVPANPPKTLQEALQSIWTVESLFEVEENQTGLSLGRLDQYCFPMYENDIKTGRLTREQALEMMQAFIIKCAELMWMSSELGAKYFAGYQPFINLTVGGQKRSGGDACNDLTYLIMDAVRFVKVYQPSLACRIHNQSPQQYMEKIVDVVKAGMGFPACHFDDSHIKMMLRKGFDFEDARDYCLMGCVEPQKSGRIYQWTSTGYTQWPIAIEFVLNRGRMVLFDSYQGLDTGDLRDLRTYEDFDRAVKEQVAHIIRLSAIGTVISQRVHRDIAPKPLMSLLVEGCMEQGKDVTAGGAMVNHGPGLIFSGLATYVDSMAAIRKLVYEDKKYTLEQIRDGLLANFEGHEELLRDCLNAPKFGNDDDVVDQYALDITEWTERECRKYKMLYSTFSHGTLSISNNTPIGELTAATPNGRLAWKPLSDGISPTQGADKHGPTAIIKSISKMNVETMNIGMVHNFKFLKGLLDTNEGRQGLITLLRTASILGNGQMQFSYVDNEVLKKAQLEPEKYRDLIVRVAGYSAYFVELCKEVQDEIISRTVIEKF
CutC from Proteus mirabilis, sequence (B4EYG0 entry or part of it, further chain): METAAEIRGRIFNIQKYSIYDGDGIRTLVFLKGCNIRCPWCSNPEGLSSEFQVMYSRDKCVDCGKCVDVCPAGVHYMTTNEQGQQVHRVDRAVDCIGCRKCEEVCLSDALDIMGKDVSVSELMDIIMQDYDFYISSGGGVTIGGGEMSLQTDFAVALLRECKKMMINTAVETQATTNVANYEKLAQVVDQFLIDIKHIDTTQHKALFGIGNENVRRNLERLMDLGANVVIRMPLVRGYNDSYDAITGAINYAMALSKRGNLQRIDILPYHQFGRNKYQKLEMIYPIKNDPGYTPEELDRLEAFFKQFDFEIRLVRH

The target of one experiment is CutC from Proteus mirabilis (Proteus mirabilis, UniProt B4EYG1). As to the kind of experiment: Cell-based assay for TMA production from a native producer (P. mirabilis). The note with it: d9-TMA from 1 mM d9-choline, 5 h, 37° C.; value 10 given when no fit or % TMA remaining at 10 μM higher than 15%; read-out: Average IC50 Whole cell P. mirabilis. The source says:
In each bacterium, CutC was modified into its activated form by a cognate activating enzyme, CutD (protein EDU36696.1 for C. sporogenes; protein WP_004249185.1 for P. mirabilis). […] Trimethylamine may subsequently be converted by human enzymes such as flavin monooxygenase 3 to trimethylamine N-oxide, which might be associated with negative health consequences in humans.
A compound's ability to inhibit CutC from Proteus mirabilis and C. sporogenes from converting choline into trimethylamine was tested in cells as described. A BHI blood plate was inoculated with a frozen stock of Proteus mirabilis or Clostridium sporogenes under anaerobic conditions. A single colony was isolated from the plate and inoculated into 5 mL BHI supplemented with 1 mM choline under anaerobic conditions. The liquid cultures were grown overnight at 37° C.
To prepare each sample, 300 μL of the saturated culture was then inoculated into a 30 mL dilution blank under anaerobic conditions. 1 mM (trimethyl-d9)-choline and a sufficient amount of a compound to obtain a final concentration of 10 μM were added to the inoculated dilution blank. […] The mixture was incubated at 37° C. for 5 h. […] After centrifugation, the samples were analyzed by LCMS to determine the amount of d9-TMA produced.
In the case of `C[N+](C)(CCO)C1CCC1` [Compound 199, N-(2-hydroxyethyl)-N,N-dimethylcyclobutanaminium], the negative-log IC50 (pIC50) was < 5.00.
`C#CC[N+]1(CC#C)CC[C@@H](O)C1` [Compound 200, (3R)-3-hydroxy-1,1-bis(prop-2-yn-1-yl)pyrrolidin-1-ium]: the negative logarithm of the IC50 (pIC50) is 5.56.
The same measure, in the same setting: next, `C#CC[N+]1(CC#C)CCCN1` [Compound 201, 1,1-bis(prop-2-yn-1-yl)pyrazolidin-1-ium Bromide]: < 5.00.
Take `C=CC[N+](C)(C)CC(=C)C(=O)OC` [Compound 203, N-allyl-2-(methoxycarbonyl)-N,N-dimethylprop-2-en-1-aminium 2,2,2-trifluoroacetate]: the negative-log IC50 (pIC50) is 5.76.
For the compound `C#CC[N+](C)(C)CCC` [Compound 204, dimethyl(prop-2-yn-1-yl)propylazanium Iodide], the pIC50 was 6.18.
Same read-out and setting: the same measure for `C#CC[N+]1(CF)CCC[C@H]1CO` (stereo partly drawn) [Compound 205, (2S)-1-(fluoromethyl)-2-(hydroxymethyl)-1-(prop-2-yn-1-yl)pyrrolidin-1-ium Iodide]: 5.08; for `C#CC[N+](C)(C)CC` [Compound 206, ethyldimethyl(prop-2-yn-1-yl)azanium Iodide]: 7.16; for `C#CC[N+](C)(C)Cc1ncco1` [Compound 207, dimethyl[(1,3-oxazol-2-yl)methyl](prop-2-yn-1-yl)azanium Chloride]: 6.51.
As to `C#CC[N+](C)(C)CC(=C)C` [Compound 208, N,N,2-trimethyl-N-(prop-2-yn-1-yl)prop-2-en-1-aminium 2,2,2-trifluoroacetate], the pIC50 was < 5.00.
Same read-out and setting: the same measure for `C#CC[N+](C)(C)CC(=C)F` [Compound 209, 2-fluoro-N,N-dimethyl-N-(prop-2-yn-1-yl)prop-2-en-1-aminium 2,2,2-trifluoroacetate]: 5.17; for `C#CC[N+](C)(C)CC=C` [Compound 211, N,N-dimethyl-N-(prop-2-yn-1-yl)prop-2-en-1-aminium 2,2,2-trifluoroacetate]: 6.68; for `COC[N+](C)(C)CCO` [Compound 212, (2-hydroxyethyl)(methoxymethyl)dimethylazanium trifluoroacetate]: 5.70.
`CC[N+](C)(CF)CCO` (stereo not drawn) [Compound 213, ethyl(fluoromethyl)(2-hydroxyethyl)(methyl)azanium Iodide]: the negative-log IC50 (pIC50) was 6.74.
Consider `C#CC[N+]1(CF)CC[C@@H](O)C1` (stereo partly drawn) [Compound 214, (3R)-1-(fluoromethyl)-3-hydroxy-1-(prop-2-yn-1-yl)pyrrolidin-1-ium], for which the pIC50 is 5.41.
With `C#CC[N+](C)(C)CCC(=O)NS(C)(=O)=O` [Compound 215, [2-(methanesulfonylcarbamoyl)ethyl]dimethyl(prop-2-yn-1-yl)azanium], the negative-log IC50 (pIC50) is 6.39.
The same measure, in the same setting: next, `C#CC[N+](C)(C)CC(=O)NS(C)(=O)=O` [Compound 216, [(methanesulfonylcarbamoyl)methyl]dimethyl(prop-2-yn-1-yl)azanium]: < 5.00; `C#CC[N+](C)(C)CC(=C)Br` [Compound 217, (2-bromoprop-2-en-1-yl)dimethyl(prop-2-yn-1-yl)azanium]: 6.11; `C[N+]1(C)CCOC(O)(C(F)(F)F)C1` (stereo not drawn) [Compound 218, 2-hydroxy-4,4-dimethyl-2-(trifluoromethyl)morpholin-4-ium trifluoroacetate]: < 5.00.

Still in this experiment, the particulars now being: read-out: Average IC50 Whole cell P. mirabilis; d9-TMA from 1 mM d9-choline, 5 h, 37° C.; value 10 given when no fit or % TMA remaining at 10 μM higher than 15%.
Take `C[N+](C)(CCO)CCCl` [Compound 198, (2-chloroethyl)(2-hydroxyethyl)dimethylazanium Iodide]: the pIC50 was < 5.00.
On the same count and under the same terms, next, `C#CC[N+](C)(C)CCP(=O)(OCC)OCC` [Compound 202, diethyl {2-[dimethyl(prop-2-yn-1-yl)azaniumyl]ethyl}phosphonate Bromide]: 6.62; `C#CC[N+](C)(C)CCP(=O)(O)O` [Compound 210, {2-[dimethyl(prop-2-yn-1-yl)azaniumyl]ethyl}phosphonic Acid]: < 5.00.
